Data set [1] deals with NLRC4 phosphorylation (site S533). Kind of data set: SINE RNA induced NLRC4 phosphorylation (S533) in BMDM, Western blot. The data set is classed as cell-based, mouse. Particulars: SINE RNAs each at 100 pmol, polyI:C 10 μg/ml (FIG. 1). As to the method:
FIG. 1. SINE RNA induced NLRC4 phosphorylation (site S533) in mice macrophage (BMDM). Mouse bone marrow derived macrophage (BMDM) were treated with SINE RNAs (Alu (SEQ ID NO: 86), B1 (SEQ ID NO: 87), and B2 (SEQ ID NO: 88), each at 100 pmol), and polyI:C (10 μg/ml). Phosphorylated Nlrc4 (p-Nlrc4) and total Nlrc4 (t-Nlrc4) were detected by Western blot. Actin is provided as a loading control. The p-NLRC4 bands were indicated by black arrow.
Previous studies have shown that NLRC4 inflammasome activation in response to Salmonella exposure requires two steps for its activation, phosphorylation on Ser533 residue of NLRC4 and NAIP mediated oligomerization of NLRC4. […] Moreover, treatment with SINE RNAs induced caspase-1 p20 cleavage, indicative of inflammasome activation (FIG. 2). For the subsequent experiments in this study, we used Alu RNA (SEQ ID NO: 86) as the stimulus to activate the NLRC4 inflammasome. To date, two kinases are reported to phosphorylate NLRC4 at S533: protein kinase C delta (PKCδ) and leucine rich repeat-containing kinase-2 (LRRK2). To explore the roles of these kinases in Alu RNA (SEQ ID NO: 86) induced NLRC4 phosphorylation, we pretreated BMDMs with pharmacological inhibitors of LRRK2 (GSK2578215A, GSK) and PKCδ (Rottlerin, Rot) respectively.
(Immunoblotting shows a protein as a band on a membrane.)

The test system of the next data set is caspase-1. The data set can be described thus: Alu RNA induced cleavage of caspase-1 precursor in BMDM. The class given is cell-based, mouse. Particulars: Alu RNA transfection (FIG. 2). As to the method: FIG. 2. SINE RNA induced NLRC4 phosphorylation (site S533) through protein Kinase C Delta. BMDM cell pre-treated with the LRRK2 Kinase inhibitor gsk2578215a (GSK; 5-(2-Fluoro-4-pyridinyl)-2-(phenylmethoxy)-N-3-pyridinyl-benzamide; CAS Number 1285515-21-0; Sigma-Aldrich, St. Louis, Mo., United States of America) or the PKC delta inhibitor Rottlerin (CAS Number 82-08-6; Sigma-Aldrich) at 2 μM or 5 μM, and treated with Alu RNA (SEQ ID NO: 86) transfection or transfection reagent alone (Mock). NLRC4 phosphorylation (P-NLRC4) and supernatant caspase-1 activation were detected by SDS-PAGE. […] PKC delta inhibitor, Rottlerin blocked Alu RNA-induced NLRC4 phosphorylation and caspase-1 activation. The p-NLRC4 and caspase-1 (p20) bands were indicated with black arrows.

The next data set relates to NLRC4 and NLRP3 complex. The data set can be described thus: Assembly of NLRC4 and NLRP3 complex in human RPE cells, Proximity Ligation Assay. The data set is classed as cell-based. Particulars: biotinylated Alu RNA 100 pmol, PLA (FIG. 37). As to the method: FIG. 37. Alu RNA (SEQ ID NO: 86) induces the assembly of NLRC4 and NLRP3 complex. Human RPE cells were transfected with biotinylated Alu RNA (SEQ ID NO: 86 at 100 pmol) by LIPOFECTAMINE™ 3000 brand transfection reagent (Lipo; ThermoFisher Scientific). The assembly of NLRC4 and NLRP3 complex was evaluated by Proximity Ligation Assay (PLA). […] The signal of NLRC4-NLRP3 complexes is indicated by the white arrow.
Human RPE cells were treated with biotinylated Alu RNA (SEQ ID NO: 86 at 100 pmol). The assembly of NLRC4 and NLRP3 complex was evaluated by Proximity Ligation Assay (PLA).

The target in another data set is DDX17 (Homo sapiens, UniProt Q92841). Kind of data set: CLIP (cross-linking immunoprecipitation) of biotin-Alu RNA and DDX17 in HEK293 cells. The data set is classed as binding. Conditions: UV cross-linking, streptavidin pull down (FIG. 8B). Also noted: Myc; expressed in transfected cells; host or cells: HEK293. From the text:
FIGS. 8A-8C. CLIP (cross-linking immunoprecipitation) on Alu RNA (SEQ ID NO: 86) and Ddx17 interaction. Human HEK293 cell transfected with btn-Alu RNA (SEQ ID NO: 86), cross-linked by ultraviolet light, pull-downed by biotin-streptavidin. The binding of Ddx17 determined by western blot. FIG. 8A. Schematic of CLIP (cross-linking immunoprecipitation) for biotin or myc-tag mediated immunoprecipitation. FIG. 8B. […] WCL is whole cell lysates. The bands of pull downed DDX17 proteins by Alu RNA (SEQ ID NO: 86) were indicated by black arrow. FIG. 8C. The HEK293 cells were transfected with myc-tagged DDX17 and biotin-Alu RNA (SEQ ID NO: 86). Cells were cross-linked and lysates for immunoprecipitation by Anti-myc beads. The total RNA was extracted, and were the Alu RNA (SEQ ID NO: 86) were detected with Northern blot. […] The bands of pull-downed Alu RNA (SEQ ID NO: 86) by myc-DDX17 proteins were indicated by black arrow.
Next, we sought to identify the sensor responsible for Alu RNA (SEQ ID NO: 86) induced NLRC4 inflammasome activation. We employed cross-linking immunoprecipitation (CLIP)-mass spectrometry to reveal protein interaction partners of Alu RNA (SEQ ID NO: 86). […] Immunoprecipitation of the cell lysate with anti-Streptavidin (FIG. 8B) or Myc antibody (FIG. 8C) pulled down biotin-labelled Alu RNA (SEQ ID NO: 86), as detected by northern blotting. […]

Sequence of DDX17 (Q92841 whole entry, species assumed): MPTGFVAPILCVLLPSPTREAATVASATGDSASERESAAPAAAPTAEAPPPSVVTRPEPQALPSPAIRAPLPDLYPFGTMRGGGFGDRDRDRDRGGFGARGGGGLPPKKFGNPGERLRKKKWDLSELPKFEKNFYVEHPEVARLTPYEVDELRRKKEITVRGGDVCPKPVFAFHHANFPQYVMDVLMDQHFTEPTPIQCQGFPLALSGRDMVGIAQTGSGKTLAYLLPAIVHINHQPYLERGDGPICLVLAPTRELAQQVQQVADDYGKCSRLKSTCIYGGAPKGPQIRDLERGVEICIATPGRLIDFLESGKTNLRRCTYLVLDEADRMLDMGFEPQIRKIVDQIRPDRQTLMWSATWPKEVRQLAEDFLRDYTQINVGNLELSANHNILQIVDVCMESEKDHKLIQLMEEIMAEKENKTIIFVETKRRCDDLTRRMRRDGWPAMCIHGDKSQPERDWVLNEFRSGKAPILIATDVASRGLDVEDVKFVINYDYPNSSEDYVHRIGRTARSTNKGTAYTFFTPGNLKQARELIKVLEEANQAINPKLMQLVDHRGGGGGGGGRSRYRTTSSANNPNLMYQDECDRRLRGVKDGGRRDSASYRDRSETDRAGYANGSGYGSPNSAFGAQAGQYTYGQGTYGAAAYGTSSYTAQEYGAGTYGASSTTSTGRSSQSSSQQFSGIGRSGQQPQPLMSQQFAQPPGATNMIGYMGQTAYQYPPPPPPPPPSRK

As for Alu RNA: human SINE RNA, SEQ ID NO: 86, the “NLRC4 phosphorylation on S533 in BMDMs” value in data set [1] is “induced”. The “cleavage of caspase-1 precursor (pro) to p20” value in the data set with caspase-1 was “induced”. In the data set with NLRC4 and NLRP3 complex, the “assembly of NLRC4 and NLRP3 complex” value is on record as “induced the assembly”. The “binding of DDX17 to biotin-Alu RNA” value in the data set with DDX17 is “physically binds”.

These data come from patent publication US20220280543A1, “DDX17 AND NLRC4 TARGETING FOR INFLAMMATORY DISEASES” (University of Virginia Patent Foundation, priority 2019, published 2022).
